Tests used:
HT-29 = test: Western blot analysis; assay type: cell-based, human; conditions: 100 ng/mL and 250 ng/mL IFN-γ
Description: (§1) Pyroptosis assay. Recombinant Human TNF-α (Cat #300-01A, PeproTech, Rocky Hill, NJ, USA) and Recombinant Human IFN-γ (Cat #300-02, PeproTech, Rocky Hill, NJ, USA) were purchased for use in western blot analysis while rhTRAIL was generated in-house. See Kim et al., J. Biol. Chem., 279, 40044-40052 (2004).
(§2) Western blot analysis. Cells were plated in a 6-well plate and incubated overnight before the spent media was replaced with drugged media. Drug treatment lasted for indicated durations. Protein was extracted using radioimmunoprecipitation (RIPA) assay buffer (Cat #R0278, Sigma-Aldrich, St. Louis, MO, USA) containing cOmplete™, Mini, EDTA-free Protease Inhibitor Cocktail (Cat #4693159001, Roche, Basel, Switzerland) from sub-confluent cells. Denaturing sample buffer was added, samples were boiled at 95° C. for ten minutes, and an equal amount of protein lysate was electrophoresed through NuPAGE™ 4 to 12%, bis-Tris, 1.5 mm, Mini Protein Gels (Invitrogen, Waltham, MA, USA) then transferred to PVDF membranes. The PVDF membrane was blocked with 5% non-fat milk (Sigma-Aldrich, St. Louis, MO, USA) in 1× TTBS. Primary antibodies were incubated with the transferred PVDF membrane in blocking buffer at 4° C. overnight. Secondary antibodies included Goat anti-Rabbit IgG (H+L) Secondary Antibody, HRP (Cat #31460, Invitrogen, Waltham, MA, USA), and Goat anti-Mouse IgG (H+L) Secondary Antibody, HRP (Cat #31430, Invitrogen, Waltham, MA, USA). The signal was detected using Pierce™ ECL Western Blotting Substrate (Cat #32106, Thermo Scientific, Waltham, MA, USA) and a Syngene Imaging System (RRID: SCR_015770).
(§3) Elraglusib uprequlates tumor cell PD-L1 and proapoptotic pathway expression as well as downregulates immunosuppressive/angiogenic protein expression and pro-survival pathways. The inventors performed Western blot analyses on colorectal cancer cells (HCT-116, HT-29) treated with elraglusib over a 72-hour time course. […] The inventors observed increases in PD-L1 expression as the treatment duration increased. To further elucidate the elraglusib-mediated effects on tumor cell survival, the inventors probed for survival factors Bcl-2 and Survivin and noted decreases in protein expression in both cell lines, especially at the later timepoints (forty-eight hours, seventy-two hours). […] HCT116 cells are heterozygous for β-catenin, harboring one wild-type allele and one mutant allele with inactivation of one of the residues phosphorylated by GSK-3β that is frequently mutated in tumors. Kaler, Augenlicht, & Klampfer, PLoS ONE, 7, e45462 (2012). HT-29, KM12C, and SW480 cells harbor APC mutations. Rowan et al., Proc. Natl. Acad. Sci. USA, 97, 3352 (2000).

HCT-116 = test: Western blot analysis; assay type: cell-based, human; conditions: 100 ng/mL and 250 ng/mL IFN-γ
Description: as §1, §2, §3

## IFN-γ: Recombinant Human IFN-γ (PeproTech) used in western blot analysis
HT-29
  gasdermin B expression: increase
HCT-116
  gasdermin B expression: increase
